How the values were obtained:
[1] = xn = mol fraction of the nth substance listed; settings: 101 kPa, Liquid
[2] = refractive index (Na D-line) (dimensionless); xn = mol fraction of the nth substance listed; settings: 101 kPa, Liquid

COc1ccccc1 [anisole] + Cc1cccc(C)c1
Settings	mass density, 288.15 K [kg/m3]	mass density, 293.15 K [kg/m3]	mass density, 298.15 K [kg/m3]	mass density, 303.15 K [kg/m3]	refractive index, 288.15 K	refractive index, 293.15 K	refractive index, 298.15 K	refractive index, 303.15 K
[1], x1 = 0.1006	880.54	876.26	872.02	867.67	–	–	–	–
[1], x1 = 0.2463	898.41	894.1	889.76	885.42	–	–	–	–
[1], x1 = 0.3753	914.55	910.2	905.8	901.39	–	–	–	–
[1], x1 = 0.496	930.02	925.62	921.19	916.71	–	–	–	–
[1], x1 = 0.6398	948.95	944.45	940.02	935.48	–	–	–	–
[1], x1 = 0.7468	963.38	958.8	954.36	949.8	–	–	–	–
[1], x1 = 0.8284	974.53	969.91	965.45	960.86	–	–	–	–
[1], x1 = 0.9034	984.93	980.26	975.77	971.13	–	–	–	–
[1], x1 = 0.9613	993.02	988.29	983.78	979.08	–	–	–	–
[1], x1 = 1	998.44	993.65	989.15	984.37	–	–	–	–
[2], x1 = 0.1006	–	–	–	–	1.5021	1.4992	1.4963	1.4944
[2], x1 = 0.2463	–	–	–	–	1.5055	1.5018	1.499	1.497
[2], x1 = 0.3753	–	–	–	–	1.5086	1.5042	1.5013	1.4993
[2], x1 = 0.496	–	–	–	–	1.5117	1.5065	1.5037	1.5016
[2], x1 = 0.6398	–	–	–	–	1.5155	1.5093	1.5065	1.5044
[2], x1 = 0.7468	–	–	–	–	1.5184	1.5115	1.5088	1.5066
[2], x1 = 0.8284	–	–	–	–	1.5206	1.5132	1.5104	1.5082
[2], x1 = 0.9034	–	–	–	–	1.5228	1.5149	1.5121	1.5098
[2], x1 = 0.9613	–	–	–	–	1.5244	1.5161	1.5133	1.511
[2], x1 = 1	–	–	–	–	1.5256	1.5169	1.5141	1.5117

Cc1cccc(C)c1 [1,3-dimethylbenzene] + COc1ccccc1
x2 = 0
Settings	mass density, 288.15 K [kg/m3]	mass density, 293.15 K [kg/m3]	mass density, 298.15 K [kg/m3]	mass density, 303.15 K [kg/m3]	refractive index, 288.15 K	refractive index, 293.15 K	refractive index, 298.15 K	refractive index, 303.15 K
[1]	868.32	864.05	859.77	855.47	–	–	–	–
[2]	–	–	–	–	1.4997	1.4973	1.4944	1.4925

COc1ccccc1 [anisole] + Cc1ccc(C)cc1
Settings	mass density, 288.15 K [kg/m3]	mass density, 293.15 K [kg/m3]	mass density, 298.15 K [kg/m3]	mass density, 303.15 K [kg/m3]	refractive index, 288.15 K	refractive index, 293.15 K	refractive index, 298.15 K	refractive index, 303.15 K
[1], x1 = 0.0994	877.53	873.32	869.02	864.71	–	–	–	–
[1], x1 = 0.2471	896.11	891.85	887.55	883.2	–	–	–	–
[1], x1 = 0.3745	912.51	908.14	903.84	899.38	–	–	–	–
[1], x1 = 0.496	928.51	924.05	919.74	915.2	–	–	–	–
[1], x1 = 0.6455	948.69	944.15	939.83	935.26	–	–	–	–
[1], x1 = 0.7466	962.63	958.06	953.71	949.14	–	–	–	–
[1], x1 = 0.8972	983.79	979.14	974.73	970.18	–	–	–	–
[1], x1 = 0.949	991.13	986.45	981.99	977.4	–	–	–	–
[1], x1 = 0.9772	995.17	990.43	985.95	981.34	–	–	–	–
[1], x1 = 1	998.44	993.65	989.15	984.37	–	–	–	–
[2], x1 = 0.0994	–	–	–	–	1.5007	1.4978	1.4949	1.4935
[2], x1 = 0.2471	–	–	–	–	1.5044	1.5006	1.4978	1.4963
[2], x1 = 0.3745	–	–	–	–	1.5077	1.5032	1.5004	1.4987
[2], x1 = 0.496	–	–	–	–	1.5109	1.5057	1.5029	1.5011
[2], x1 = 0.6455	–	–	–	–	1.5151	1.5089	1.5061	1.5042
[2], x1 = 0.7466	–	–	–	–	1.5179	1.5111	1.5084	1.5064
[2], x1 = 0.8972	–	–	–	–	1.5223	1.5145	1.5118	1.5097
[2], x1 = 0.949	–	–	–	–	1.5239	1.5157	1.5129	1.5107
[2], x1 = 0.9772	–	–	–	–	1.5248	1.5164	1.5136	1.5113
[2], x1 = 1	–	–	–	–	1.5256	1.5169	1.5141	1.5117

Cc1ccc(C)cc1 [1,4-dimethylbenzene] + COc1ccccc1
x2 = 0
Settings	mass density, 288.15 K [kg/m3]	mass density, 293.15 K [kg/m3]	mass density, 298.15 K [kg/m3]	mass density, 303.15 K [kg/m3]	refractive index, 288.15 K	refractive index, 293.15 K	refractive index, 298.15 K	refractive index, 303.15 K
[1]	865.25	860.92	856.62	852.25	–	–	–	–
[2]	–	–	–	–	1.4983	1.4958	1.4929	1.4915

Cc1cc(C)cc(C)c1 [1,3,5-trimethylbenzene] + COc1ccccc1
Settings	mass density, 288.15 K [kg/m3]	mass density, 293.15 K [kg/m3]	mass density, 298.15 K [kg/m3]	mass density, 303.15 K [kg/m3]	refractive index, 288.15 K	refractive index, 293.15 K	refractive index, 298.15 K	refractive index, 303.15 K
[1], x2 = 0	869.17	865.07	861.06	856.95	–	–	–	–
[1], x2 = 0.1099	880.36	876.24	872.21	868.07	–	–	–	–
[1], x2 = 0.2441	894.89	890.7	886.62	882.42	–	–	–	–
[1], x2 = 0.3933	912.23	907.95	903.79	899.5	–	–	–	–
[1], x2 = 0.509	926.57	922.2	917.98	913.64	–	–	–	–
[1], x2 = 0.672	948.28	943.8	939.52	935.05	–	–	–	–
[1], x2 = 0.749	959.22	954.69	950.34	945.87	–	–	–	–
[1], x2 = 0.8397	972.73	968.14	963.75	959.19	–	–	–	–
[1], x2 = 0.895	981.31	976.67	972.25	967.63	–	–	–	–
[1], x2 = 0.967	992.94	988.19	983.74	979.01	–	–	–	–
[2], x2 = 0	–	–	–	–	1.5045	1.4993	1.4976	1.4948
[2], x2 = 0.1099	–	–	–	–	1.5063	1.5009	1.4991	1.4964
[2], x2 = 0.2441	–	–	–	–	1.5088	1.5029	1.5011	1.4984
[2], x2 = 0.3933	–	–	–	–	1.5116	1.5054	1.5033	1.5007
[2], x2 = 0.509	–	–	–	–	1.5142	1.5073	1.5052	1.5026
[2], x2 = 0.672	–	–	–	–	1.5175	1.5103	1.5079	1.5054
[2], x2 = 0.749	–	–	–	–	1.5193	1.5117	1.5093	1.5068
[2], x2 = 0.8397	–	–	–	–	1.5214	1.5136	1.511	1.5086
[2], x2 = 0.895	–	–	–	–	1.5228	1.5147	1.5121	1.5097
[2], x2 = 0.967	–	–	–	–	1.5247	1.5162	1.5135	1.5111

Source: the NIST ThermoML archive (doi:10.1016/j.jct.2006.02.001)
